Experimental findings from patent publication US11834453B2, “Substituted pyrimido[5,4-d]pyrimidines as HER2 inhibitors” (Array BioPharma Inc., priority 2020, dated 2023) are described below.

SMILES strings stand for the structures.

The efflux ratio is the permeability from basolateral to apical divided by that in the opposite direction, in the common usage. A word on the IC50: it is the concentration needed to halve the response being measured.

The target of series [1] is T1, MDR1 (P-gp) (Homo sapiens (Human), UniProt P08183). The series can be described thus: MDR1 transfected LLC-PK1 permeability/efflux, Assay 6. Particulars: pig, LLC-PK1, Assay 6 Pe Ratio, efflux ratio Papp(B-A)/Papp(A-B), MDR1 transfected LLC-PK1.
Series [2] has as its target ErbB2 insYVMA (HER2-YVMA, SEQ ID NO: 2) (Homo sapiens, UniProt P04626, INS775YVMA/P1170A). Kind of series: biochemical. Particulars: ErbB2 insYVMA enzyme assay; read-out: Assay 1 IC50.
In a further series the target is EGFR (Homo sapiens (Human), UniProt P00533). Kind of series: ErbB enzyme assay (CisBio HTRF KinEASE-TK), Assay 3. In kind it is biochemical. In outline:
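HTRF dual-wavelength read after 1 h detection; POC normalised to DMSO (100) and pre-quenched (0) controls, IC50 where 4-parameter curve crosses 50 POC. Reaction: 250 nM TK-substrate biotin, 1 mM ATP, pH 7.4 HEPES buffer with MgCl2, 30 min, 22 °C.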
(Time-resolved FRET reads energy transfer from a long-lived donor to a nearby acceptor.)

The next series deals with EGFR wild type (EGFR WT) (Homo sapiens (Human), UniProt P00533). The series can be described thus: Cellular phosphorylation assay, EGF-stimulated EGFR phosphorylation (Y1068) in engineered NIH 3T3 cells, Odyssey imaging, Assay 5 (footnote 1). In kind it is cell-based. The settings on record: values marked with footnote 1. The protocol:
NIH 3T3 cells were engineered to express ErbB2 with Exon 20 YVMA insertion (HER2-YVMA (SEQ ID NO: 2); Assay 4) or EGFR wild type (EGFR WT; Assay 5, footnote 1) with constructs obtained from GenScript and grown in DMEM supplemented with 10% fetal bovine serum and 15 μg/ml blasticidin. Cells were plated in 96-well plates at 40,000 or 45,000 cells/well for HER2-YVMA (SEQ ID NO: 2) and EGFR WT assays, respectively, and allowed to attach overnight at 37° C./5% CO2. Serially diluted compounds were added to the plates for 1 hour at 37° C./5% CO2. EGFR WT cells were stimulated with 100 ng/ml rEGF for an additional 10 minutes at 37° C./5% CO2. After compound incubation, medium was removed from the cells, which were then fixed in 3.7% formaldehyde in PBS at room temperature for 20 minutes. Following a wash with PBS, cells were permeabilized with 100% methanol at room temperature for 10 minutes. Cells were then washed with PBS/0.05% Tween-20 and blocked with Odyssey blocking buffer (LI-COR Biosciences) for at least 1 hour at room temperature. Antibodies to phosphorylated ErbB2 (Y1196, Cell Signaling #6942) or phosphorylated EGFR (Y1068, Cell Signaling #3777) and GAPDH (Millipore #MAB374) were added to the cells in blocking buffer containing 0.05% azide and incubated overnight at 4° C. After washing with PBS/0.05° i° Tween-20, the cells were incubated with fluorescently labeled secondary anti-rabbit antibody (LiCOR, IRDye 800CW #926-32211) and anti-mouse antibody (Molecular Probes, Alexa Fluor 680 #A21058) for 1 hour at room temperature in the dark. Cells were then washed and analyzed for fluorescence at both wavelengths using the Odyssey Infrared Imaging System (LI-COR Biosciences). Phosphorylated ErbB2 and EGFR signal was normalized to GAPDH signal to generate curves and calculate IC50 values.

For series [3], the target named is ErbB2 with Exon 20 YVMA insertion (HER2-YVMA) (Homo sapiens (Human), UniProt P04626, INS775YVMA). The series can be described thus: Cellular phosphorylation assay, constitutive ErbB2 phosphorylation (Y1196) in engineered NIH 3T3 cells, Assay 4. In kind it is cell-based. In outline:
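In-cell Western in NIH 3T3 cells carrying ErbB2 exon 20 YVMA insertion, with no ligand stimulation. One hour compound exposure at 37 °C before fixation and anti-pY1196 plus GAPDH staining with dual-wavelength fluorescence. IC50 derived after GAPDH normalization.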

Series [4] concerns the target T1, MDR1 (P-gp). Kind of series: MDR1 transfected MDCKII canine Mdr1 knockout permeability/efflux, Assay 7. Particulars: dog, MDCK-MDR1.
A further series concerns the target ErbB2 WT (Homo sapiens (Human), UniProt P04626). Kind of series: ErbB enzyme assay (CisBio HTRF KinEASE-TK), Assay 2. The format is biochemical. Summed up:
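Readout is HTRF KinEASE-TK, using Sa-XL665 and cryptate antibody for 1 h at 22 °C, as percent of control between DMSO-only (100) and pre-quenched (0) reactions. The kinase reaction runs 30 min at 22 °C with 1 mM ATP and 250 nM biotinylated TK substrate, in HEPES pH 7.4 with MgCl2 and 2% DMSO.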

Chain of ErbB2 with Exon 20 YVMA insertion (HER2-YVMA) (P04626 other isoform, or with tags, fused parts or gaps ins YVMA behind 775): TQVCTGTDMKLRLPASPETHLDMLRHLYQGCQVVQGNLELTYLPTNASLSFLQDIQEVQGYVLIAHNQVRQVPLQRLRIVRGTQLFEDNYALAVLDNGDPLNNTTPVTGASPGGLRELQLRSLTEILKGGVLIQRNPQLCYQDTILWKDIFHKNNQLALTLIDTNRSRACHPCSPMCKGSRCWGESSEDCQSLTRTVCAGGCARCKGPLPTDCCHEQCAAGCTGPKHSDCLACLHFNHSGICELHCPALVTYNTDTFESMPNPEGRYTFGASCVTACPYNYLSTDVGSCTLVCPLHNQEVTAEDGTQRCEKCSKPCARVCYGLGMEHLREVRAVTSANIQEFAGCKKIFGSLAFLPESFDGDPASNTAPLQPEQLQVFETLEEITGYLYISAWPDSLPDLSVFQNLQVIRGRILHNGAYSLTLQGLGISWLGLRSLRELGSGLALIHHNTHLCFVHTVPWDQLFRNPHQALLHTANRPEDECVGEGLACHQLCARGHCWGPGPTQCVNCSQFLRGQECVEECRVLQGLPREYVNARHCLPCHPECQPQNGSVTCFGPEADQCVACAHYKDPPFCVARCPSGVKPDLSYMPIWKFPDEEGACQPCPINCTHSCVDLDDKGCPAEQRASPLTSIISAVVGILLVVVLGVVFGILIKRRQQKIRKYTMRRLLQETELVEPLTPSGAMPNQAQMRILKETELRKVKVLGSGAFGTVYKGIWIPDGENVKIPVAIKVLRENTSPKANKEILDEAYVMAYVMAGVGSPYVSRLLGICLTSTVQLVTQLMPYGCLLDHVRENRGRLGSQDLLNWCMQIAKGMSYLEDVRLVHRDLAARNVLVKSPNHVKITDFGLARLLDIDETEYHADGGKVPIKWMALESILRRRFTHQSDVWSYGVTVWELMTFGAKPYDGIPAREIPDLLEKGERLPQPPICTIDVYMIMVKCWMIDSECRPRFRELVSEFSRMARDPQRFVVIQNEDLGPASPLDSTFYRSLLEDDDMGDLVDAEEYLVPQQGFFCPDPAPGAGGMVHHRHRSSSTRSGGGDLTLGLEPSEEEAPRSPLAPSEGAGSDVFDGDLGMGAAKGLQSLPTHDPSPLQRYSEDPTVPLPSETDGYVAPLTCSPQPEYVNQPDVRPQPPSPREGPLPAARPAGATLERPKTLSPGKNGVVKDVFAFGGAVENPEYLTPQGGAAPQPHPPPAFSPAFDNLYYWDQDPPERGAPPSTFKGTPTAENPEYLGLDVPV
Chain of ErbB2 insYVMA (HER2-YVMA, SEQ ID NO: 2) (P04626 with tags, fused parts or gaps INS775YVMA/P1170A limits assumed): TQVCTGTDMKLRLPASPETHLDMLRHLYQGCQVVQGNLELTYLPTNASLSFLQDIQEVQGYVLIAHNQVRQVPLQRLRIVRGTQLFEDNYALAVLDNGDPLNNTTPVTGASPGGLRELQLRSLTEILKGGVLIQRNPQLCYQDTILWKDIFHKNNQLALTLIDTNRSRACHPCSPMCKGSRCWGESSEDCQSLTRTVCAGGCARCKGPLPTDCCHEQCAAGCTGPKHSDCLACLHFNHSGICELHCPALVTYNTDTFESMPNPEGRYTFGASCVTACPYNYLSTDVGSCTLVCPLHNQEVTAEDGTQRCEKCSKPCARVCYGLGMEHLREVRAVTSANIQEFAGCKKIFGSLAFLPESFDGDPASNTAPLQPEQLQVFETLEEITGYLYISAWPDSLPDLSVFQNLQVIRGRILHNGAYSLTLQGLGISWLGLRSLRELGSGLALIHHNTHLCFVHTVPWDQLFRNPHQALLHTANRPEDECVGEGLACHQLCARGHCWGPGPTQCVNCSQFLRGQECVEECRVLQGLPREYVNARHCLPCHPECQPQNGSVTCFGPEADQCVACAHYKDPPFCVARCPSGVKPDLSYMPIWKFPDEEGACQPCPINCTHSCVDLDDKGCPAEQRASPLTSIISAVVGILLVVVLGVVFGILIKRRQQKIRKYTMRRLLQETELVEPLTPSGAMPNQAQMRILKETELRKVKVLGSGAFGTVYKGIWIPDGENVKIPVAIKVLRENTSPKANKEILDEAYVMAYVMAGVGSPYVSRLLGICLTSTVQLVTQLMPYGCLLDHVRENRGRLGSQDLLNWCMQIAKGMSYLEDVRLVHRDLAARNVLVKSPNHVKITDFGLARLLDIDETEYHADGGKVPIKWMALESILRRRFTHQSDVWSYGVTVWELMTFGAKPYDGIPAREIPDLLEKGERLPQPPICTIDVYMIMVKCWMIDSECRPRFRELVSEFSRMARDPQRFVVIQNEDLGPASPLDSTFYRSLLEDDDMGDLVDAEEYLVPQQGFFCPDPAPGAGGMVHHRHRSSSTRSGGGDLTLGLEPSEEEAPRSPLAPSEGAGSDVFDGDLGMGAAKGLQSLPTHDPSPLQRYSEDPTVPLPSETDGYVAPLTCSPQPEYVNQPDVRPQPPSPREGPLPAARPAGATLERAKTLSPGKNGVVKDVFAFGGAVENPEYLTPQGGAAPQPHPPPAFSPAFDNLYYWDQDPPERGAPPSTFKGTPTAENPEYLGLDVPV
Chain of ErbB2 WT (P04626 23-1255): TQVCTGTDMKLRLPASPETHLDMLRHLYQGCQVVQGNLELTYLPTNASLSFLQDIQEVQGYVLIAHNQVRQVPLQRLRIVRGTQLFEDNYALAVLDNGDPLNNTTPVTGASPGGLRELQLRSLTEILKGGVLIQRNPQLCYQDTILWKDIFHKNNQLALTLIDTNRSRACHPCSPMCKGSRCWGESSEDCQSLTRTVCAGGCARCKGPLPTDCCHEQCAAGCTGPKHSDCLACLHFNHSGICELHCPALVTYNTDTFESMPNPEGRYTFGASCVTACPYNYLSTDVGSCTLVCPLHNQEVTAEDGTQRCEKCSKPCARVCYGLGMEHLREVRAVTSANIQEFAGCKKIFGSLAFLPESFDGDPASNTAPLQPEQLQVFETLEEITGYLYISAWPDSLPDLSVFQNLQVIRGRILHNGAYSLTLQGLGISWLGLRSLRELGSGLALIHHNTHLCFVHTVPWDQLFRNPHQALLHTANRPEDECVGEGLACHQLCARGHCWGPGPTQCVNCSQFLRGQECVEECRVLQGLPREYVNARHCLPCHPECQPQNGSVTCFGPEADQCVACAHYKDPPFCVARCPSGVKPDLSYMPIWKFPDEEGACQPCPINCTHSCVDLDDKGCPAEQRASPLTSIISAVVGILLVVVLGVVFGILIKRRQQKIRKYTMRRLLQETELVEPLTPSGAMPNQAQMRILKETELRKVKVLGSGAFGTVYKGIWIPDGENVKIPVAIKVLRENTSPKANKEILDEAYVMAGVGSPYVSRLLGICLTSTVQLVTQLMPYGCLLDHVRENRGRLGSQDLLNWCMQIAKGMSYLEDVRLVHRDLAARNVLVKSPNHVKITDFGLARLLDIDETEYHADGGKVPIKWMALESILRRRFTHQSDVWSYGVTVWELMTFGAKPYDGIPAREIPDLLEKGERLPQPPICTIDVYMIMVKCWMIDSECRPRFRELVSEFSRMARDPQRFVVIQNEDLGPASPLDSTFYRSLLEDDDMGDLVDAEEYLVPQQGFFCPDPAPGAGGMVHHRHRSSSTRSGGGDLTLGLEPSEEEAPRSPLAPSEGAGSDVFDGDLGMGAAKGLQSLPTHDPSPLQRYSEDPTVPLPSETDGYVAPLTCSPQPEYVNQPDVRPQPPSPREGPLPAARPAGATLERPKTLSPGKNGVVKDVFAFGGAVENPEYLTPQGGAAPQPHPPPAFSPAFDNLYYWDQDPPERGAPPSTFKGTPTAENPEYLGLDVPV
T1 sequence (P08183 whole entry): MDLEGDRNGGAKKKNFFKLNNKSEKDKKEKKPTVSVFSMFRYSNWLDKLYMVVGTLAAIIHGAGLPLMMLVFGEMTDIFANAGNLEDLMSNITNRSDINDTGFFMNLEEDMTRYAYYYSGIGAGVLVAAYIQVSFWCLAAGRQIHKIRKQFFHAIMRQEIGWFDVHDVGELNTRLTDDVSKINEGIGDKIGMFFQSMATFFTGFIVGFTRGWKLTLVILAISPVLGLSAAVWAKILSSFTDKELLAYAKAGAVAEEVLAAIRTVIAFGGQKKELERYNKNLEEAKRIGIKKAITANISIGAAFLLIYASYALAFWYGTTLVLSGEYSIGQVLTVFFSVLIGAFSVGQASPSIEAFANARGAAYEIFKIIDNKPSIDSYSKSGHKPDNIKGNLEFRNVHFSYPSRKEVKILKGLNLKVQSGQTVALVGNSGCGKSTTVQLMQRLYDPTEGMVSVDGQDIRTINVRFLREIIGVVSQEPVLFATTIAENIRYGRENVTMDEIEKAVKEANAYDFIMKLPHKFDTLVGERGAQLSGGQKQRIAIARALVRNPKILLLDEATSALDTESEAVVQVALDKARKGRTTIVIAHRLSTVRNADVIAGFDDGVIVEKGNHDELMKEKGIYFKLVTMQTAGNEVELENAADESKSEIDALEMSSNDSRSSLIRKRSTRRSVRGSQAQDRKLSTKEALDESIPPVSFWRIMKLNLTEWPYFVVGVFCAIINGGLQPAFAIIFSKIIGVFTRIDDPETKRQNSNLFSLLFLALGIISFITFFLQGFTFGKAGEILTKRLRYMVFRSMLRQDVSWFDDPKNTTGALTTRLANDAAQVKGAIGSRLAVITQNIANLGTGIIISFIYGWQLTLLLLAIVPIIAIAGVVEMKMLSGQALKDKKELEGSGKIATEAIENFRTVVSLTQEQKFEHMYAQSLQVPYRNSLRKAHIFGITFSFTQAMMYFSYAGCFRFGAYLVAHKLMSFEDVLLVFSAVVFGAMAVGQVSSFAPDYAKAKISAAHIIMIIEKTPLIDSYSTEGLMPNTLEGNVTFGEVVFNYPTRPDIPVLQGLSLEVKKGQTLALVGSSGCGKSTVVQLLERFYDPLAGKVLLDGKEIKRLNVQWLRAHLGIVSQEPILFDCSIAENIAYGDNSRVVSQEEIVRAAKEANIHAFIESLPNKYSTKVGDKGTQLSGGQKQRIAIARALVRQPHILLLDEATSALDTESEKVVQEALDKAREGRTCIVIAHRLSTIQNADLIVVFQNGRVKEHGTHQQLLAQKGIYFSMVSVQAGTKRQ

`Cc1cc(Nc2ncnc3cnc(N(C)C)nc23)ccc1Oc1ccc2c(c1)ncn2C` [Example 3, N2,N2-dimethyl-N8-(3-methyl-4-((1-methyl-1H-benzo[d]imidazol-5-yl)oxy)phenyl)pyrimido[5,4-d]pyrimidine-2,8-diamine 2,2,2-trifluoroacetate]: the efflux ratio at 2 h, 1 μM at MDR1 (P-gp) [1] and at MDR1 (P-gp) [4] was 1 throughout. For the same molecule, the IC50 in series [2] was determined as 12.5 nM; against EGFR, 8250 nM; against EGFR wild type (EGFR WT), 5000 nM; in series [3] it was 42.9 nM; at ErbB2 WT, 52.4 nM.

Turning to `CNc1ncc2ncnc(Nc3ccc(Oc4ccc5c(c4)ncn5C)c(C)c3)c2n1` [Example 4, N2-methyl-N8-(3-methyl-4-((1-methyl-1H-benzo[d]imidazol-5-yl)oxy)phenyl)pyrimido[5,4-d]pyrimidine-2,8-diamine], the results for the efflux ratio at 2 h, 1 μM at MDR1 (P-gp) [1] and on MDR1 (P-gp) [4] were 0.9 and 1.4, respectively. For the same molecule, the IC50 came to 8.9 nM in series [2]; 4900 nM against EGFR; 5000 nM against EGFR wild type (EGFR WT); 7.2 nM in series [3]; 30 nM against ErbB2 WT.

For `COc1ncc2ncnc(Nc3ccc(Oc4ccc5csnc5c4)c(C)c3)c2n1` [Example 7, N-(4-(benzo[c]isothiazol-6-yloxy)-3-methylphenyl)-6-methoxypyrimido[5,4-d]pyrimidin-4-amine 2,2,2-trifluoroacetate], the efflux ratio at 2 h, 1 μM at MDR1 (P-gp) [1] was found to be 1; on MDR1 (P-gp) [4], 1.3. Also, the IC50 in series [2] is 18.5 nM; at EGFR, 2010 nM; against EGFR wild type (EGFR WT), 5000 nM; in series [3] it was 146 nM; against ErbB2 WT it was 56.8 nM.

On to `COc1ncc2ncnc(Nc3ccc(Oc4ccc5c(c4)ncn5C)c(C)c3)c2n1` [Example 8, 6-methoxy-N-(3-methyl-4-((1-methyl-1H-benzo[d]imidazol-5-yl)oxy)phenyl)pyrimido[5,4-d]pyrimidin-4-amine 2,2,2-trifluoroacetate], for which the efflux ratio at 2 h, 1 μM at MDR1 (P-gp) [1] stood at 0.9; at MDR1 (P-gp) [4] it was 1. The IC50 in series [2] is 22.7 nM; against EGFR, at least 10000 nM; against EGFR wild type (EGFR WT), 5000 nM; in series [3] it was 159 nM; on ErbB2 WT, 69.7 nM.

As for `Cc1cc(Nc2ncnc3cnc(N4CCOCC4)nc23)ccc1Oc1ccc2c(c1)ncn2C` [Example 9, N-(3-methyl-4-((1-methyl-1H-benzo[d]imidazol-5-yl)oxy)phenyl)-6-morpholinopyrimido[5,4-d]pyrimidin-4-amine 2,2,2-trifluoroacetate], the figures for the efflux ratio at 2 h, 1 μM on MDR1 (P-gp) [1] and at MDR1 (P-gp) [4] were 0.8 and 1.2, respectively. Moreover, the IC50 was 13.6 nM in series [2]; at least 10000 nM against EGFR; 5000 nM against EGFR wild type (EGFR WT); 4.9 nM in series [3]; 64 nM against ErbB2 WT.

In the case of `CSc1ncc2ncnc(Nc3ccc(Oc4ccc5csnc5c4)c(C)c3)c2n1` [Example 11, N-(4-(benzo[c]isothiazol-6-yloxy)-3-methylphenyl)-6-(methylthio)pyrimido[5,4-d]pyrimidin-4-amine 2,2,2-trifluoroacetate], the efflux ratio at 2 h, 1 μM on MDR1 (P-gp) [1] and at MDR1 (P-gp) [4] was 0.7 throughout. The IC50 in series [2] stood at 54.4 nM; at EGFR, 925 nM; at EGFR wild type (EGFR WT) it was 5000 nM; in series [3], 95.1 nM; against ErbB2 WT it was 97.4 nM.
